Source: US20230293614A1, “COMPOSITIONS AND METHODS OF TREATING UPS-ASSOCIATED DISEASES” (Board of Supervisors of Louisiana State University and …, priority 2020, published 2023)

Assays:
[1] = tested on: deubiquitinating enzymes (DUBs); assay: DUB activity (Z-LRGG-AMC cleavage) in lysates of treated MM.1S cells; assay type: cell-based; details: for Vmax / effect on DUB activity vs DMSO control / Km / n (Hill coefficient): 16 h
Description: OPM2 cells were maintained in RPMI 1640 media supplemented with 12% FBS, 21.8 mM glucose, 8.6 mM HEPES (pH 7.4) and 1.0 mM sodium pyruvate. MM.1S cell line were maintained in RPMI 1640 media supplemented with 10% FBS. The cells were all cultured in T175 flasks (VWR, Radnor, Pa.). All media components were from Corning, Atlanta, Ga. unless otherwise noted. To test the effect of the ethanolic extract and bioactive compounds on DUB activity, cells were exposed to a 16-h pretreatment with 10 μg/mL of PMI-5011 and 1, 10, 30 μg/mL concentrations of DMC-1, DMC-2, KOE, and davidigenin before lysing the cells for experimentation. All compounds were reconstituted in DMSO to obtain stock concentrations, which was further diluted in culture media to obtain the desired experimental concentrations. For vehicle control, a subpopulation of cells was treated with pure DMSO diluted in a similar manner for the same duration. Upon treatment, cell lysates (both OPM2 and MM.1S) were generated by harvesting 1×10^6 cells/mL, followed by washing 2× and pelleting in phosphate buffered saline (PBS; 137 mM NaCl, 10 mM Na2HPO4, […], and 1.75 mM KH2PO4 at pH 7.4). The cell pellet was re-suspended in an approximately equivalent volume of M-PER to the volume of the cell pellet (1000-2000 μL) then vortexed for 10 min at room temperature. Following this, the mixture was centrifuged at 14,000×g for 15 min at 4° C. and the supernatant transferred to a centrifuge tube and stored on ice until use. Total protein concentration was determined using a NanoDrop 2000c (Thermo Scientific, Madison, Wis.).
The commercial DUB reporter, Z-LRGG-AMC (substrate) (SEQ ID NO: 1) was reconstituted in DMSO to obtain a final stock concentration of 1.44 mM. This stock reporter was diluted as needed in assay buffer (50 mM HEPES, pH 7.4, 150 mM NaCl, 2 mM DTT, and 0.02% Tween-20) supplemented with 4 mg/mL cell lysates (source of DUBs) to reach the desired reporter concentration with a final volume of 100 μL in a 96-well plate. OPM2 and MM.1S cell lysates from different treatments (10 μg/mL of PMI-5011; 1, 10, and 30 μg/mL of DMC-1, DMC-2, KOE, davidigenin and control vehicle DMSO) and C2C12 cell lysates were used to interrogate the effect of the ethanolic extract and selected bioactive compounds on DUB activity. Reporter only and lysates only (noise/background) samples were included in the 96-well plate to confirm that the rates observed were due to DUB-mediated hydrolysis initiated by the cell lysates. The 96-well plate was maintained at a temperature of 30° C. in the dark for the duration of the experiment. The fluorescence signals emitted as a result of DUB-mediated cleavage of AMC (λex=355 nm and λem=460 nm) were quantified using a Wallac 1420 VICTOR2 multilabel HTS counter fluorometry (Perkin Elmer (Waltham, Mass.). Readings were collected every 30 min for 6 h. The normalized signals were obtained by comparing the treatment with noise and background fluorescence values which were then statistically analyzed for their significance. Each data point represents triplicate data points from duplicate experiments. A calibration curve was generated for known concentrations of AMC to correlate the fluorescence signal (AU) to concentration (μM). The approximate concentration of free fluorophore was used to calculate reaction rates (μM/min) for each substrate concentration using linear regression analysis.
All data visualization, interpretation and curve-fittings were performed using Origin Pro (OriginLab, Northampton, MA) while statistical analyses of experimental data were carried out using SAS 9.4 (SAS Solutions). The analyses of enzyme-substrate reactions in all cell lysates started with scatter plotting the fluorometry signals (p,M) measured for each substrate concentration against time (min). Fluorescence signals measured for each substrate concentration remained stable during the first 30 min, indicating there was a 30-minute lag period before reaction initiation. […]

[2] = MTT cellular viability assay, OPM2; assay type: cell-based; details: human, OPM2 cells, read-out: percentage of viable cells
Description: The effect of PMI-5011 and bioactive compounds on the viability of cells was tested using a standard colorimetric MTT assay. The MTT Cell Proliferation Assay Kit was purchased from VWR, Radnor, Pa. MM.1S and OPM2 cells were treated with 10 μg/mL of PMI-5011 and 1, 10, and 30 μg/mL of DMC-1, DMC-2, KOE and davidigenin and plated at a density of 10^6 cells/mL in a 96-well plate with each well containing 250 μL of the sample. The plated cells were then incubated at 37° C. for 16 h. 10 μg/mL for PMI-5011 and a 16-h treatment period was used in this study based on previous findings by Yu et al.^24 Parallel plates were prepared for positive and negative solvent vehicle control with the same volume of DMSO and ethanol as for the treated cells. On the day of the experiment, the 96-well plates were centrifuged at 1000×g at 4° C. for 5 min in a microplate compatible centrifuge. The media was discarded and 50 μL of serum-free media and 50 μL of the MTT reagent were added into each well. For a background control, 50 μL of the MTT reagent was added into a well containing media only (no cells). The plate was incubated at 37° C. for 3 h in the dark. After incubation, 150 μL of the MTT solvent was added into each well. The plate was wrapped in a foil and placed on an orbital shaker for 15 min. Finally, the absorbance was measured at λex=544 nm and λem=590 nm using a Wallac 1420 VICTOR2 multilabel HTS counter fluorometry (Perkin Elmer (Waltham, Mass.). The percentage viable cells was obtained by Eq. 1.
% Viable Cells=S-N/C-N×100 (Eq. 1)
Where, S denotes raw absorbance values from samples, N denotes average absorbance value of the background control and C denotes the highest average absorbance value of positive vehicle control. The obtained percentage cytotoxicity values were then statistically analyzed for their significance. Each data point represents triplicate data points from duplicate experiments. The effect of PMI-5011 and the selected bioactive compounds on C2C12 cell viability has previously been reported.^24

## COc1ccc(CCC(=O)c2ccc(O)cc2O)cc1 [DMC-2, 1-(2,4-dihydroxyphenyl)-3-(4-methoxyphenyl)propan-1-one]
[1]; 1 μg/mL
  Vmax: 22.70 ± 1.71 µM/min
  effect on DUB activity vs DMSO control: significantly enhanced
[1]; 10 μg/mL
  Vmax: 18.13 ± 0.14 µM/min
  effect on DUB activity vs DMSO control: significantly enhanced
[1]; 30 μg/mL
  Vmax: 18.12 ± 7.21 µM/min
  effect on DUB activity vs DMSO control: significantly enhanced
[1]; 1, 10, 30 μg/mL, regression fit
  effect of increasing concentration on DUB activity (normalized Vmax): negative linear effect
[1]; Table 2, 1 μg/mL
  Km: 44.8 µM
  Vmax: 0.0227 µM/min
  n (Hill coefficient): ~1.00
[1]; Table 2, 10 μg/mL
  Km: 39.4 µM
  Vmax: 0.0181 µM/min
  n (Hill coefficient): 1.68
[1]; Table 2, 30 μg/mL
  Km: 42.2 µM
  Vmax: 0.0181 µM/min
  n (Hill coefficient): 1.06
[2]; 1 μg/mL
  viability at 16 h, 1 μg/mL: ~85%
[2]; 30 μg/mL
  viability at 16 h, 30 μg/mL: ~70%
